Measured values: paper PMC10385865, “Synthesis and Anticancer Activity of Novel Dual Inhibitors of Human Protein Kinases CK2 and PIM-1” (Pharmaceutics, 2023)
Like-named read-outs stand apart in the source and are kept apart here.

How the values were obtained:
PIM-1 = target: T1, PIM-1 (Homo sapiens, UniProt P11309); assay: P81 filter isotopic (radiometric) kinase assay, PIM-1; format: biochemical; conditions: substrate peptide […], Ki from IC50 by Cheng–Prusoff
T1 construct: made in house
Procedure: The obtained compounds were tested for their inhibitory activity toward human CK2α, human CK2 holoenzyme, and PIM-1 using a P81 filter isotopic assay as described previously. […] The experimental data were fitted to the sigmoidal dose–response equation, i.e., (variable slope) Y = Bottom + (Top-Bottom)/(1 + 10^((LogIC50−X)∗HillSlope), in GraphPad Prism (Prism 9, v. 9.0.1).
Inhibition of the human CK2 catalytic subunit (CK2α), CK2 holoenzyme (CK2α2β2), and PIM-1 by the newly obtained compounds was evaluated using a radiometric assay (Table 1, Figure S2). The synthetic peptide […] was used as the substrate of CK2, and peptide […] was used as the substrate of PIM-1. The values of the inhibition constant (Ki) were calculated using the Cheng–Prusoff equation: Ki = IC50/(1 + [S]/Km).

K-562 cells = assay: Annexin V/propidium iodide apoptosis, flow cytometry, K-562; conditions: for viability at 5 µM / viability at 10 µM: Homo sapiens, K562, 48 h, read-out: Viable; for Early apoptosis / Late apoptosis / Necrosis: mean±SD
Procedure: (§3) MCF-7 cells were seeded in 6-well plates at 1.2 × 10^5 cells/well, whereas CCRF-CEM and K-562 cells were seeded in 24-well plates at a density of 2 × 10^5/mL. Cells were treated with the tested compounds used in 5 µM and 10 µM concentrations. Then, the plates were incubated for 48 h. After exposure to the examined compounds, the cells were collected and centrifugated at 200× g at 4 °C for 5 min, washed twice in cold phosphate-buffered saline (PBS), and subsequently suspended in binding buffer at 1 × 10^6 cells/mL. Subsequently, 100-μL aliquots of the cell suspension were labeled according to the instructions of the respective manufacturer’s kit. Briefly, annexin V-fluorescein isothiocyanate and propidium iodide (BD Biosciences, Pharmingen, San Diego, CA, USA) were added to the cell suspension, and the mixture was vortexed, then incubated for 15 min at RT in the dark. A cold binding buffer (400 μL) was then added, and the cells were vortexed again and kept on ice. Flow cytometric measurements were performed within 1 h after labeling. Viable, necrotic, early, and late apoptotic cells were detected by flow cytometry using a BD FACSCanto II flow cytometer and analyzed using BD FACSDiva operating software (BD Biosciences, San Jose, CA, USA).

MCF-7 cells [1] = assay: Cell cycle progression by flow cytometry (PI), MCF-7; format: cell-based, human; conditions: MCF-7, 48 h
Procedure: MCF-7, CCRF-CEM, and K-562 cells were cultured in 6-well plates and treated with the tested compounds for 48 h. After exposure to the compounds, the cells were collected and washed with cold PBS and fixed at −20 °C in 70% ethanol for at least 24 h. Subsequently, cells were washed in PBS and stained with 50 μg/mL PI (propidium iodide) and 100 μg/mL RNase solution in PBS supplemented with 0.1% v/v Triton X-100 for 30 min in the dark at RT. Cellular DNA content was determined by flow cytometry employing a BD FACSCanto II flow cytometer (BD Biosciences, San Jose, CA, USA). The obtained DNA histograms were analyzed using MacCycle software (Phoenix Flow Systems, San Diego, CA, USA) for evaluation of the distribution of the cells in different phases of the cell cycle.
Since CK2 controls cell cycle progression and, consequently, its inhibition can affect the distribution of cells in the individual phases of the cell cycle, we tested the cell cycle progression in CCRF-CEM, K-562, and MCF-7 cells after treatment with 4 and rac-6. Representative plots DNA histograms with the calculations of cell percentages in each phase of the cell cycle are depicted in Figure 7. […] Accumulation of cells in sub-G1 indicates DNA degradation, as often seen in apoptotic cells, confirming the results obtained with annexin V and PI staining.

[2] = test system: CCRF-CEM (acute lymphoblastic leukemia); assay: MTT-based viability assay, CCRF-CEM; format: cell-based, human; conditions: for IC50: Homo sapiens, CCRF-CEM, 48 h, read-out: IC50 CCRF-CEM
Procedure: (§1) After incubation with the tested compounds, an MTT test was performed as described previously. Optical densities were measured at 570 nm using a BioTek microplate reader (BioTek Instruments, Inc., Winooski, VT, USA). All measurements were carried out in a minimum of three biological replicates.
(§2) . The IC50 values describing the half-maximal effective concentration of each tested compound were calculated and are summarized in Table 2. […].

MCF-7 cells [3] = assay: Annexin V/propidium iodide apoptosis, flow cytometry, MCF-7; conditions: for viability at 5 µM / viability at 10 µM: Homo sapiens, MCF7, 48 h, read-out: Viable; for Early apoptosis / Late apoptosis / Necrosis: mean±SD
Procedure: as §3

Vero cells = assay: MTT-based viability assay, non-cancerous Vero cells; format: cell-based, Cercopithecus aethiops; conditions: Chlorocebus sabaeus, 48 h, read-out: IC50 Vero
Procedure: as §1, §2

T1 sequence (P11309 whole entry): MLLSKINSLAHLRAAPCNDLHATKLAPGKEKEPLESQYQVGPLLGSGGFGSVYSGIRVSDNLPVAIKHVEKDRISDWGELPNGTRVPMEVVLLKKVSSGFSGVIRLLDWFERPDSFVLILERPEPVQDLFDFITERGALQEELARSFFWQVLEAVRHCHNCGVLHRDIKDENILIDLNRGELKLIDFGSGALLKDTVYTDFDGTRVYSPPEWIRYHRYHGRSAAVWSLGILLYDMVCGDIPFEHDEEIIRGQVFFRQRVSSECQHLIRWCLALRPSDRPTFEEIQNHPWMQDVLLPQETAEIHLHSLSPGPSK

SMILES	Ki (PIM-1) [µM]	viability at 5 µM (K-562 cells) [%]	viability at 10 µM (K-562 cells) [%]	Early apoptosis (K-562 cells; K-562, 5 µM, 48 h) [%]	Late apoptosis (K-562 cells; K-562, 5 µM, 48 h) [%]	Necrosis (K-562 cells; K-562, 5 µM, 48 h) [%]	percentage of total apoptotic K-562 cells (K-562 cells; K-562, 10 µM, 48 h) [%]	Early apoptosis (K-562 cells; K-562, 10 µM, 48 h) [%]	Late apoptosis (K-562 cells; K-562, 10 µM, 48 h) [%]	Necrosis (K-562 cells; K-562, 10 µM, 48 h) [%]	cell cycle arrest (phase, in words) (MCF-7 cells [1])	viability at 5 µM (MCF-7 cells [3]) [%]	viability at 10 µM (MCF-7 cells [3]) [%]	Early apoptosis (MCF-7 cells [3]; MCF-7, 5 µM, 48 h) [%]	Late apoptosis (MCF-7 cells [3]; MCF-7, 5 µM, 48 h) [%]	Necrosis (MCF-7 cells [3]; MCF-7, 5 µM, 48 h) [%]	Early apoptosis (MCF-7 cells [3]; MCF-7, 10 µM, 48 h) [%]	Late apoptosis (MCF-7 cells [3]; MCF-7, 10 µM, 48 h) [%]	Necrosis (MCF-7 cells [3]; MCF-7, 10 µM, 48 h) [%]	further results
OC(CNc1nc2c(Br)c(Br)c(Br)c(Br)c2[nH]1)C(F)(F)F (racemic) [rac-6, 1,1,1-Trifluoro-3-[(4,5,6,7-tetrabromo-1H-benzimidazol-2-yl)amino]propan-2-ol]	0.067	87.97 ± 0.81	82.8 ± 3.68	5.13±0.40	5.97±1.02	0.63±0.06	15.5	4.67±1.21	10.80±4.06	1.70±0.60	G1-phase arrest	79 ± 1.94	69.1 ± 13.1	1.18±1.08	10.96±1.63	8.94±1.14	3.53±5.45	19.05±7.40	8.28±1.69	induction of apoptosis (in words) (K-562 cells; K-562, 5 and 10 µM, 48 h): no significant apoptosis observed; IC50 ([2]; MTT): 11.8 ± 0.4 µM; SI (selectivity index) CCRF-CEM ([2]; IC50 Vero/IC50 cancer cells): 1.72; induction of apoptosis (in words) (MCF-7 cells [3]; MCF-7, 10 µM, 48 h, statistically significant result): induced apoptosis; IC50 (Vero cells; MTT): 20.4 ± 0.41 µM
CN(C)c1nc2c(Br)c(Br)c(Br)c(Br)c2[nH]1 [Compound 4, 4,5,6,7-Tetrabromo-N,N-dimethyl-1H-benzimidazol-2-amine, reference compound]	0.052	92.3 ± 0.99	90.6 ± 4.27	1.95±0.61	4.70±1.21	1.05±0.69	8.7	1.33±0.67	7.43±3.52	0.67±0.31	S-phase arrest	79 ± 2.76	70.3 ± 3.36	0.98±0.62	8.44±1.47	11.62±2.01	1.80±1.31	15.94±3.58	11.96±2.46	IC50 [2]: 18.9 ± 0.88 µM; IC50 (Vero cells): 18.7 ± 0.33 µM
